From US11339171B2, “MDM2 inhibitors” (Gan & Lee Pharmaceuticals, priority 2017, dated 2022)

Biological target: T1, MDM2 (Homo sapiens, UniProt Q00987)
T1 construct: made in house
Assay: Inhibition test of MDM2-P53 (GST-MDM2, Biotin-P53, Anti-GST-Tb, SA-XL665)
Type: binding
Settings: labels are Example numbers; the compounds with S-configuration are meant
Protocol: Experimental purpose: To determine the inhibitory activities of the compounds of the present invention on MDM2.
The present experiment uses the following assay methods/instruments/reagents:
Buffer: 1×PBS+0.1% BSA+5 mM DTT; MDM2 Buffer: Buffer+1 mM AEBSF
GST-MDM2: The final concentration is 4 nM, and it is required to formulate a 20 nM (5×) solution. A mother liquor is diluted by 3500 folds, wherein the mother liquor is 10-fold diluted first, and then 350-fold diluted.
Anti-GST-Tb: The final concentration is 2×, and a mother liquor is diluted by 50 folds.
MIX: GST-MDM2, Biotin-P53, SA-XL665 and Anti-GST-Tb were mixed according to a ratio of 4:4:5:5.
Sample: Preparation of a sample (10 mM in DMSO) solution: a. 3 μL sample+7 μL DMSO+20 μL DMSO were formulated to give an initial concentration of 1 mM and mixed well; b. in plate 1, twelve 5-fold serial dilutions (sequentially prepared by adding 10 μL of the last sample to 40 μL DMSO) were prepared and mixed well, individually; c. plate 2 was taken, 45 μL of Buffer was added to each well, and 5 μL of dilution at each concentration was taken from plate 1 and added to the corresponding well in plate 2 (the concentration in well 1 was 100 μM), and mixed well.
1. 18 μL of MIX was added to a 384-well plate, and centrifugation was performed at 4500 rpm for 5 min.
2. 2 μL of sample was added correspondingly to each well, the resultant was centrifuged at 25° C. and 4500 rpm for 5 min, and shaked at 25° C. for 90 min on a shaker.
Readings were obtained from the Microplate reader, and data was processed by Graphpad Prism 6.0.

T1 sequence (Q00987 whole entry): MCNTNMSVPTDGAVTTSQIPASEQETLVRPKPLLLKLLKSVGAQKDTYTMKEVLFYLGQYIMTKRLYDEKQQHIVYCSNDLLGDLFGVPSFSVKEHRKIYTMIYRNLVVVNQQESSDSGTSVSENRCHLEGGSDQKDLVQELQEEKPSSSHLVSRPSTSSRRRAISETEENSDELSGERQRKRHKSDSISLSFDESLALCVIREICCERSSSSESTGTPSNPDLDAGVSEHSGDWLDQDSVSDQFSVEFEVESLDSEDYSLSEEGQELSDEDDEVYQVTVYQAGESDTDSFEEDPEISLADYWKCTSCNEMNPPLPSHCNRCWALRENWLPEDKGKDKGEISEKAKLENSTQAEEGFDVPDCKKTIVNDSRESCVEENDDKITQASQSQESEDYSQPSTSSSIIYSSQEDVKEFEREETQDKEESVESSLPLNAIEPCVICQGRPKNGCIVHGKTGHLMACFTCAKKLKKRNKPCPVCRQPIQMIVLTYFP

Q: Which “inhibitory effect on MDM2 compared with positive control compound HDM201” value does the source give for `COc1ccccc1-c1nc2c(n1C(C)C)C1(C(=O)Nc3cc(Cl)ccc31)N(c1cc(Cl)c(=O)n(C)c1)C2=O` (centres unmarked) [Example 53, 6-chloro-5′-(5-chloro-1-methyl-6-oxo-1,6-dihydropyridin-3-yl)-3′-isopropyl-2′-(2-methoxyphenyl)-3′H-spiro[dihydroindole-3,4′-pyrrolo[3,4-d]imidazole]-2,6′(5′H)-dione] here?
A: Its value is “better”.

Q: Which “inhibitory effect on MDM2 compared with positive control compound HDM201” value does the source give for `COc1ccc(C)cc1-c1nc2c(n1C(C)C)C1(C(=O)Nc3cc(Cl)ccc31)N(c1cc(Cl)ccc1C)C2=O` (centres unmarked) [Example 62, 6-chloro-5′-(5-chloro-2-methylphenyl)-3′-isopropyl-2′-(2-methoxy-5-methylphenyl)-3′H-spiro[dihydroindole-3,4′-pyrrolo[3,4-d]imidazole]-2,6′(5′H)-dione] here?
A: Its value is “better”.

Q: `COc1ccc(N2C(=O)c3nc(-c4ccccc4OC)n(C(C)C)c3C23C(=O)Nc2cc(Cl)ccc23)cc1Cl` (centres unmarked) [Example 63, 6-chloro-5′-(3-chloro-4-methoxyphenyl)-3′-isopropyl-2′-(2-methoxyphenyl)-3′H-spiro[dihydroindole-3,4′-pyrrolo[3,4-d]imidazole]-2,6′(5′H)-dione] was tested. Which “inhibitory effect on MDM2 compared with positive control compound HDM201” value did it give?
A: The value was “better”.

Q: With `COc1cc(N)ccc1-c1nc2c(n1C(C)C)C1(C(=O)Nc3cc(Cl)ccc31)N(c1cc(Cl)ccc1F)C2=O` (centres unmarked) [Example 66, 2′-(4-amino-2-methoxyphenyl)-6-chloro-5′-(5-chloro-2-fluorophenyl)-3′-isopropyl-3′H-spiro[dihydroindole-3,4′-pyrrolo[3,4-d]imidazole]-2,6′(5′H)-dione] as the compound, how does the “inhibitory effect on MDM2 compared with positive control compound HDM201” value read?
A: The value was “better”.

Q: With `COc1cc(N)ccc1-c1nc2c(n1C(C)C)C1(C(=O)Nc3cc(Cl)ccc31)N(c1cc(F)cc(Cl)c1)C2=O` (centres unmarked) [Example 67, 2′-(4-amino-2-methoxyphenyl)-6-chloro-5′-(3-chloro-5-fluorophenyl)-3′-isopropyl-3′H-spiro[dihydroindole-3,4′-pyrrolo[3,4-d]imidazole]-2,6′(5′H)-dione] as the compound, how does the “inhibitory effect on MDM2 compared with positive control compound HDM201” value read?
A: Its value is “better”.

Q: Which “inhibitory effect on MDM2 compared with positive control compound HDM201” value does the source give for `COc1ccc(CC(=O)N(C)C)cc1-c1nc2c(n1C(C)C)C1(C(=O)Nc3cc(Cl)ccc31)N(c1cc(Cl)ccc1C)C2=O` (centres unmarked) [Example 70, 2-(3-(6-chloro-5′-(5-chloro-2-methylphenyl)-3′-isopropyl-2,6′-dioxo-5′,6′-dihydro-3′H-spiro[dihydroindole-3,4′-pyrrolo[3,4-d]imidazole]-2′-yl)-4-methoxyphenyl)-N,N-dimethylacetamide] here?
A: The value was “better”.

Q: Which “inhibitory effect on MDM2 compared with positive control compound HDM201” value does the source give for `COc1cc(N)ccc1-c1nc2c(n1C(C)C)C1(C(=O)Nc3cc(Cl)ccc31)N(c1ccc(F)c(Cl)c1)C2=O` (centres unmarked) [Example 73, 2′-(4-amino-2-methoxyphenyl)-6-chloro-5′-(3-chloro-4-fluorophenyl)-3′-isopropyl-3′H-spiro[dihydroindole-3,4′-pyrrolo[3,4-d]imidazole]-2,6′(5′H)-dione] here?
A: Its value is “better”.

Q: With `COc1cc(C(N)=O)ccc1-c1nc2c(n1C(C)C)C1(C(=O)Nc3cc(Cl)ccc31)N(c1cc(Cl)ccc1C)C2=O` (centres unmarked) [Example 77, 4-(6-chloro-5′-(5-chloro-2-methylphenyl)-3′-isopropyl-2,6′-dioxo-5′,6′-dihydro-3′H-spiro[dihydroindole-3,4′-pyrrolo[3,4-d]imidazole]-2′-yl)-3-methoxybenzamide] as the compound, how does the “inhibitory effect on MDM2 compared with positive control compound HDM201” value read?
A: Its value is “better”.

Q: Which “inhibitory effect on MDM2 compared with positive control compound HDM201” value does the source give for `COc1cccc(OC)c1-c1nc2c(n1C(C)C)C1(C(=O)Nc3cc(Cl)ccc31)N(c1cc(Cl)ccc1C)C2=O` (centres unmarked) [Example 79, 6-chloro-5′-(5-chloro-2-methylphenyl)-2′-(2,6-dimethoxyphenyl)-3′-isopropyl-3′H-spiro[dihydroindole-3,4′-pyrrolo[3,4-d]imidazole]-2,6′(5′H)-dione] here?
A: The value was “better”.

Q: Which “inhibitory effect on MDM2 compared with positive control compound HDM201” value does the source give for `COc1cc(N(C)C)ccc1-c1nc2c(n1C(C)C)C1(C(=O)Nc3cc(Cl)ccc31)N(c1cc(Cl)ccc1F)C2=O` (centres unmarked) [Example 81, 6-chloro-5′-(5-chloro-2-fluorophenyl)-2′-(4-(dimethylamino)-2-methoxyphenyl)-3′-isopropyl-3′H-spiro[dihydroindole-3,4′-pyrrolo[3,4-d]imidazole]-2,6′(5′H)-dione] here?
A: Its value is “better”.

Q: `COc1nc(N)ncc1-c1nc2c(n1C(C)C)C1(C(=O)Nc3cc(Cl)ccc31)N(c1cc(Cl)ccc1C)C2=O` (centres unmarked) [Example 90, 2′-(2-amino-4-methoxypyrimidin-5-yl)-6-chloro-5′-(5-chloro-2-methylphenyl)-3′-isopropyl-3′H-spiro[dihydroindole-3,4′-pyrrolo[3,4-d]imidazole]-2,6′(5′H)-dione] was tested. Which “inhibitory effect on MDM2 compared with positive control compound HDM201” value did it give?
A: The value was “better”.

Q: Which “inhibitory effect on MDM2 compared with positive control compound HDM201” value does the source give for `COc1cc(OC(C)C)ncc1-c1nc2c(n1C(C)C)C1(C(=O)Nc3cc(Cl)ccc31)N(c1cccc(Cl)c1)C2=O` (centres unmarked) [Example 95, 6-chloro-5′-(3-chlorophenyl)-2′-(6-isopropoxy-4-methoxypyridin-3-yl)-3′-isopropyl-3′H-spiro[dihydroindole-3,4′-pyrrolo[3,4-d]imidazole]-2,6′(5′H)-dione] here?
A: Its value is “better”.

Q: With `COc1cc(N(C)C)ncc1-c1nc2c(n1C(C)C)C1(C(=O)Nc3cc(Cl)ccc31)N(c1cc(Cl)ccc1C)C2=O` (centres unmarked) [Example 111, 6-chloro-5′-(5-chloro-2-methylphenyl)-2′-(6-(dimethylamino)-4-methoxypyridin-3-yl)-3′-isopropyl-3′H-spiro[dihydroindole-3,4′-pyrrolo[3,4-d]imidazole]-2,6′(5′H)-dione] as the compound, how does the “inhibitory effect on MDM2 compared with positive control compound HDM201” value read?
A: The value was “better”.

Q: With `COc1nc(N(C)C)ncc1-c1nc2c(n1C(C)C)C1(C(=O)Nc3cc(Cl)ccc31)N(c1cccc(Cl)c1)C2=O` (centres unmarked) [Example 112, 6-chloro-5′-(3-chlorophenyl)-2′-(2-(dimethylamino)-4-methoxypyrimidin-5-yl)-3′-isopropyl-3′ H-spiro[dihydroindole-3,4′-pyrrolo[3,4-d]imidazole]-2,6′ (5′ H)-dione] as the compound, how does the “inhibitory effect on MDM2 compared with positive control compound HDM201” value read?
A: The value was “better”.

Q: For `COc1cc(C#N)ccc1-c1nc2c(n1C(C)C)C1(C(=O)Nc3cc(Cl)ccc31)N(c1cccc(Cl)c1)C2=O` (centres unmarked) [Example 128], which “inhibitory effect on MDM2 compared with positive control compound HDM201” value is on record?
A: The value was “better”.

Q: With `COc1cc(OC)c(-c2nc3c(n2C(C)C)C2(C(=O)Nc4cc(Cl)ccc42)N(c2cc(Cl)ccc2F)C3=O)cn1` (centres unmarked) [Example 133, 6-chloro-5′-(5-chloro-2-fluorophenyl)-2′-(4,6-dimethoxypyridin-3-yl)-3′-isopropyl-3′H-spiro[dihydroindole-3,4′-pyrrolo[3,4-d]imidazole]-2,6′(5′H)-dione] as the compound, how does the “inhibitory effect on MDM2 compared with positive control compound HDM201” value read?
A: The value was “better”.

Q: How did the “inhibitory effect on MDM2 compared with positive control compound HDM201” value turn out when `COc1nc(N(C)C)ncc1-c1nc2c(n1C(C)C)C1(C(=O)Nc3cc(Cl)ccc31)N(c1cc(Cl)cnc1C)C2=O` (centres unmarked) [Example 135, 6-chloro-5′-(5-chloro-2-methylpyridin-3-yl)-2′-(2-(dimethylamino)-4-methoxypyrimidin-5-yl)-3′-isopropyl-3′H-spiro[dihydroindole-3,4′-pyrrolo[3,4-d]imidazole]-2,6′(5′H)-dione] was run?
A: Its value is “better”.
